Experimental data published in US11357749B2, “Methods for treating neutropenia” (Enzychem Lifesciences Corporation, priority 2014, dated 2022).

Legend:
STAT6 = STAT6 transcriptional activity reporter (luciferase) assay in HepG2 cells; format: cell-based, human; conditions: HepG2, 10 ng IL-4, PLAG 0.01-10 μg/ml, 12 hours
Experimental: (§1) By using STAT6 inhibitor (S6I), it is confirmed that the reduction of Complement 3 in HepG2 cells (human hepatocyte cell line) is regulated by STAT6. […] It is also confirmed that PLAG has selective efficacy on STAT6 over STAT1. FIG. 1 presents graphs showing STAT1 and STAT6 transcriptional activity in the PLAG treated HepG2 cells. NC refers to the unstimulated control cell. For the STAT1 assay, gene transfected HepG2 (human hepatocyte cell line) is treated with 10 ng of IFN-γ and serially diluted PLAG is added (0.01 μg/ml, 0.1 μg/ml, 1 μg/ml, and 10 μg/ml as shown) to see its effect on gene expression in the stimulated cell. For the STAT6 assay, gene transfected HepG2 cells are treated with 10 ng of IL-4 and again serially diluted PLAG is added (0.01 μg/ml, 0.1 μg/ml, 1 μg/ml, and 10 μg/ml as shown) to see its effect on gene expression in the stimulated cell. The assay is carried out following 12 hours incubation of treated cells.

p38 MAPK = p38 MAPK phosphorylation, western blot in IgE-antigen stimulated RBL-2H3 cells; format: cell-based; conditions: PLAG pre-incubated RBL-2H3 cells, IgE-antigen complex stimulation
Experimental: Dephosphorylation of p38 MAPK and ERK1/2 in PLAG-treated RBL-2H3 cells is determined by western blot analysis using anti-phospho-p38 and anti-phospho-ERK1/2 respectively. To activate the p38 and ERK1/2 in RBL-2H3 cells, the cells are sensitized with 50 ng/mL of anti-DNP-IgE overnight. After washing with PBS three times, 20 ng/ml of DNP-HSA is added. Each cell lysate for western blot is prepared in the PLAG-treated RBL-2H3 cells in a dose-dependent manner and incubated for the same time (15 min). β-actin is used as internal controls. ERK1/2 and p38 phosphorylation start immediately after IgE-antigen complex stimulation and remain sufficiently activated for 5 min.

sepsis = sepsis animal model, cecal-ligation-puncture; stated as known; cited from earlier work
C3 [1] = experiment: C3 expression (RT-PCR) in IL-4/TNF-α treated HMC-1 cells; format: cell-based, human; conditions: HMC-1 cells treated with IL-4 and TNF-α; PLAG 0.1 and 1 μg/mL
Experimental: A blood cell line, HMC-1 (human mast cell, American Type Culture Collection, ATCC, Rockville, Md.) is incubated and maintained at 37° C. under 5% CO2 humid conditions. The medium is IMDM (Life Technologies, Karlsruhe, Germany) containing 10% Fetal Calf Serum (FCS, HyClone, Logan, Utah), 2 mM […], 100 μg/ml penicillin, 100 μg/ml streptomycin (Life Technologies). The cultured HMC-1 cells (1×10^6 cell/ml) are pre-treated with 0.1 and 1 μg/mL concentration of PLAG, followed by treating with IL-4 (5 ng) and/or TNF-α (10 ng) to induce cellular activities.
The expressed C3 and its mRNA level change are observed by using RT-PCR (Reverse Transcriptase Polymerase Chain Reaction). The RT-PCR is carried out as follows: the total RNA is separated by the standard protocol and cDNA is synthesized using AccuScript High Fidelity 1st Strand cDNA Synthesis Kit (Stratagene) by the manufacturer's instructions. Two-step RT-PCR reaction is conducted using Oligo-dT primer and reverse transcriptase, pair of primer and Taq polymerase (Takara, Shiga, Japan). […] The product of PCR is separated using 1.5% agarose gel, dyed with ethidium bromide (EtBr), and visualized with Gel Doc 2000 UV trans-illuminator (Bio-Rad Laboratories, Hercules, Calif., USA), and the experimental data is analyzed using Quantity One software (Bio-Rad Laboratories).

[2] = tested on: neutrophils, lymphocytes and eosinophils; experiment: Neutrophil, lymphocyte and eosinophil ratio after Tamoxifen and PLAG in mice; format: in vivo; conditions: Tam 100 mg/kg + PLAG 5 mg/kg, after 15 hours
Experimental: 100 mg/kg of anticancer agent Tamoxifen (Tam) is used to induce reduction of neutrophils, followed by treated with 5 mg/kg of PLAG and the ratios of neutrophil (NEU), lymphocyte (LYM), and eosinophil (EOS) are measured after 15 hours as in the previous experiment.

platelets = experiment: Tamoxifen-induced platelet reduction in mice; format: in vivo; conditions: Tam 100 mg/kg + PLAG 5 mg/kg, after 15 hours
Experimental: Mice are injected with 100 mg/kg phenylhydrazine (PHZ), i.p., to induce anemia and reduction of platelets. 5 mg/kg PLAG is administered to the mice orally and blood samples are taken at 3 and 13 days after. In addition, for comparison, normal mice which are not treated with phenylhydrazine are prepared as a normal group, and mice treated with PHZ and olive oil instead of PLAG are prepared as a control group. The blood samples taken from the mice are treated with 0.5 ml EDTA (Minicollect tube, Greiner bio-one, Austria) and concentration of platelet is measured using automated blood sample analyzer BC-6800 (Mindray, Shenzhen, China) by number of platelet per […] (k: 1,000).
The experiment is repeated using Tamoxifen (Tam), an anticancer agent, injected at the amount of 100 mg/kg, or lipopolysaccharide (LPS), an inflammation inducer, at the amount of 1 mg/kg to induce platelet reduction. Platelet concentration is measured 15 hours after PLAG treatment. For comparison, olive oil and PBS are used instead of PLAG as controls, respectively for the Tamoxifen and lipopolysaccharide experiment.

bone marrow-derived HSC = experiment: In vitro colony formation in bone marrow-derived HSC; format: cell-based
C3 [3] = experiment: C3 protein by ELISA in HMC-1 cells; format: cell-based, human; conditions: HMC-1, PLAG 1, 10 and 100 μg/mL for 2 hours, 72 hours activation with 10% FBS
Experimental: In a separate experiment, human mast cells (HMC-1, 1×10^5 cell/ml) are treated with PLAG of various concentrations (1, 10 and 100 μg/mL) for 2 hours. The cells are activated for 72 hours with 10% FBS (Fetal bovine serum) containing IMDM. The decrease of C3 is confirmed by ELISA analysis of the expressed protein.

STAT1 = STAT1 transcriptional activity reporter assay in HepG2 cells; format: cell-based, human; conditions: HepG2, 10 ng IFN-γ, PLAG 0.01-10 μg/ml, 12 hours
Experimental: as §1

CCCCC/C=C\C/C=C\CCCCCCCC(=O)OC(COC(C)=O)COC(=O)CCCCCCCCCCCCCCC (racemic) [PLAG, 1-palmitoyl-2-linoleoyl-3-acetylglycerol]
transcriptional activity of STAT6 (STAT6): gradually decreased | p38 phosphorylation (p38 MAPK): down-regulated | survivability ratio of animals (sepsis): increases survivability ratio | expression of C3 (C3 [1]): suppressed by PLAG on a concentration dependent basis | Eosinophil Ratio [2]: 15.1 ± 0.3% | Lymphocyte ratio [2]: 45.7 ± 4.1% | Neutrophil Ratio [2]: 35.2 ± 2.4% | Platelet Conc. (platelets): 780.7 ± 195.9 k/ul | colony formation (bone marrow-derived HSC): increased colony formation | decrease of C3 (ELISA) (C3 [3]): proportional to the concentration of PLAG | STAT1 expression (transcriptional activity) (STAT1): no effect
